The values below are quoted from earlier work in patent publication EP0959130A1, “Cloning and expression of a new glucoamylase gene from endomyces fibuliger” (SOCIETE DES PRODUITS NESTLE S.A., priority 1998, dated 1999).

One may read the Km as the substrate concentration at which the rate is half of its maximum.

Data set [1] concerns Glucoamylase II from E.fibuliger IFO 0111. The note with it: purified Glucoamylase II; from Futatsugi et al., 1993; read-out: Km for maltose.
In data set [2] the test system is Glucoamylase I from E.fibuliger IFO 0111. The note with it: purified Glucoamylase I; from Futatsugi et al., 1993; read-out: Km for maltose.

Take `OC[C@H]1O[C@H](O[C@H]2[C@H](O)[C@@H](O)C(O)O[C@@H]2CO)[C@H](O)[C@@H](O)[C@@H]1O` (mixture of isomers) [maltose]: the Km in data set [1] is 2.6 mM; in data set [2], 8.3 mM.
